Experimental data from publication PMC3961306, “Comparison of the Cancer Gene Targeting and Biochemical Selectivities of All Targeted Kinase Inhibitors Approved for Clinical Use” (PLoS ONE, 2014).
Where two headings read alike, the source gives them in different places.

Columns and labels:
Assay in all cases: Kinase profiling in a biochemical assay panel (mobility shift assays and ELISA), %-inhibition at 1 μM; selectivity entropy
[1] = molecular target: panel of more than 300 wild-type and mutant kinases (313 kinase panel) (Homo sapiens, UniProt P10721, V560G)
[2] = molecular target: panel of more than 300 wild-type and mutant kinases (313 kinase panel) (Homo sapiens, UniProt P24941)
[3] = molecular target: T1, panel of more than 300 wild-type and mutant kinases (313 kinase panel) (Homo sapiens, UniProt O15111)
T1 sequence (O15111 1-745): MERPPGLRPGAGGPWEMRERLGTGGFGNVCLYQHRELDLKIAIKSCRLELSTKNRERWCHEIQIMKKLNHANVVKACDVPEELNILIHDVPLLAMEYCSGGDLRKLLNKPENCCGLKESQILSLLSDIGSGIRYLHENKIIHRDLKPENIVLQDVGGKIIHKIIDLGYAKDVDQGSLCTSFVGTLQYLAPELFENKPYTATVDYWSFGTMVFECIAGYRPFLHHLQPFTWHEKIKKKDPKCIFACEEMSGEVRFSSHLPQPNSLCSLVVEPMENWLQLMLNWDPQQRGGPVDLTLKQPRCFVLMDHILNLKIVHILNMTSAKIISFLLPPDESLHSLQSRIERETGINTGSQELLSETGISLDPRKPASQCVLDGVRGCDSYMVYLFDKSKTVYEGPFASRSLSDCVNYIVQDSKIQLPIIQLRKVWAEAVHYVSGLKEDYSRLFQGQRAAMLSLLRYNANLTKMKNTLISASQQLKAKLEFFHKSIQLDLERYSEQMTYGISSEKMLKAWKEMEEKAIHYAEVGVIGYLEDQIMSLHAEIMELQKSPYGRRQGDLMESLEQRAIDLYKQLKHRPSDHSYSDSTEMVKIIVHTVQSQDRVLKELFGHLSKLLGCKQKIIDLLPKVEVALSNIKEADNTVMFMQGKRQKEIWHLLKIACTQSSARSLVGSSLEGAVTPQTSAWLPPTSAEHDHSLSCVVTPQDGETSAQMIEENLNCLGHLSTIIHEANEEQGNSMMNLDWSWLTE

[4] = molecular target: panel of more than 300 wild-type and mutant kinases (313 kinase panel) (Homo sapiens, UniProt P78362)
[5] = molecular target: T2, panel of more than 300 wild-type and mutant kinases (313 kinase panel) (Homo sapiens, UniProt Q13237)
T2 sequence (Q13237 1-762): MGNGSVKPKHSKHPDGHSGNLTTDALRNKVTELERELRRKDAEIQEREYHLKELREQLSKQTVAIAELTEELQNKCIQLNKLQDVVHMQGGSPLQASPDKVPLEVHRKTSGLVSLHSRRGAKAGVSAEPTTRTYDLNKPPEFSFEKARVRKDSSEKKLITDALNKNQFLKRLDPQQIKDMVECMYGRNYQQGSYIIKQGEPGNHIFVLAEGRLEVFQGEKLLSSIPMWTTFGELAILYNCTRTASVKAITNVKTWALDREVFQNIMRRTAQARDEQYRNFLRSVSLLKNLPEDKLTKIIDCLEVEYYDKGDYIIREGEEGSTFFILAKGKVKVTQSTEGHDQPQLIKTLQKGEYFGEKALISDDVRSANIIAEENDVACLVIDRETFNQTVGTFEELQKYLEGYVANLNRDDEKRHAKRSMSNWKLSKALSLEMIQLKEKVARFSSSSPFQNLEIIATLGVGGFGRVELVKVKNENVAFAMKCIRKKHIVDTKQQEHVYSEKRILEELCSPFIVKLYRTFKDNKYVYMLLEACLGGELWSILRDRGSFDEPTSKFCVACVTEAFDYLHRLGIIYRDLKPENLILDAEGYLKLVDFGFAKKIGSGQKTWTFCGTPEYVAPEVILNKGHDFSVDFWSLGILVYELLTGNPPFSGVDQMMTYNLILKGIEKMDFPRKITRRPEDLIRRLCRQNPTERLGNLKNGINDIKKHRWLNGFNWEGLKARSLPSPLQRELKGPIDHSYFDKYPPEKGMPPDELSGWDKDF

[6] = molecular target: panel of more than 300 wild-type and mutant kinases (313 kinase panel) (Homo sapiens, UniProt P57059)
[7] = molecular target: panel of more than 300 wild-type and mutant kinases (313 kinase panel) (Homo sapiens, UniProt Q5VT25)
[8] = molecular target: panel of more than 300 wild-type and mutant kinases (313 kinase panel) (Homo sapiens, UniProt O00311)
[9] = molecular target: panel of more than 300 wild-type and mutant kinases (313 kinase panel) (Homo sapiens, UniProt O14578)
[10] = molecular target: panel of more than 300 wild-type and mutant kinases (313 kinase panel) (Homo sapiens, UniProt Q9Y463)
[11] = kinase KIT(V560G), compound at 1 μM
[12] = kinase CDK2/CycA2, 1 μM compound
[13] = kinase CDK2/CycE1, 1 μM compound
[14] = kinase DYRK1B, compound at 1 μM

panel of more than 300 wild-type and mutant kinases (313 kinase panel) (Homo sapiens, UniProt P10721, V560G), sequence (P10721 26-976 V560G): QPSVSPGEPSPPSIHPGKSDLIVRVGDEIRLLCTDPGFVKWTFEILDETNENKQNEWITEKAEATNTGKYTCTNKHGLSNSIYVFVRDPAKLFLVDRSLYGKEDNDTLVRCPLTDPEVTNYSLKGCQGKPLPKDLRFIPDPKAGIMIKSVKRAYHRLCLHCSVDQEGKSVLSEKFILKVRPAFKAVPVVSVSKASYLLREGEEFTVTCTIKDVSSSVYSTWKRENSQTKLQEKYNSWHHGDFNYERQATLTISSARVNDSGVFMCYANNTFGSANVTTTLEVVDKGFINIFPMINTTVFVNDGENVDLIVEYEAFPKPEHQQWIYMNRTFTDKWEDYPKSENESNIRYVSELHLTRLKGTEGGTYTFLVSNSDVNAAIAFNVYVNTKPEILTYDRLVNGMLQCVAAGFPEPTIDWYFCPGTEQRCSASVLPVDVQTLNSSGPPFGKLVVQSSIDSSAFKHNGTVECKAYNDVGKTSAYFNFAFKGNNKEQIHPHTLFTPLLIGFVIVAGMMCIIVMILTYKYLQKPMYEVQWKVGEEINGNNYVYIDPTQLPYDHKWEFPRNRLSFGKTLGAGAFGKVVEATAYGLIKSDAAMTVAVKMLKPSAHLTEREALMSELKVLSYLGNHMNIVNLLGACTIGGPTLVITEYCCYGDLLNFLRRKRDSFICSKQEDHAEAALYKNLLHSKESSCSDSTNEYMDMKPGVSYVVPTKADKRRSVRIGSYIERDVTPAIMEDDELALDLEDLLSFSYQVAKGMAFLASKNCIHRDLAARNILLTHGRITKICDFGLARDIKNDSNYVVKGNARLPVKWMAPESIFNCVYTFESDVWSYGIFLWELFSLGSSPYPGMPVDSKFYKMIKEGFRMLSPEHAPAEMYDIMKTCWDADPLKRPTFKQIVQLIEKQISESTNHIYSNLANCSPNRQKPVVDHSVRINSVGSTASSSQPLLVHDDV
panel of more than 300 wild-type and mutant kinases (313 kinase panel) (Homo sapiens, UniProt O14578), sequence (O14578 whole entry, change not shown): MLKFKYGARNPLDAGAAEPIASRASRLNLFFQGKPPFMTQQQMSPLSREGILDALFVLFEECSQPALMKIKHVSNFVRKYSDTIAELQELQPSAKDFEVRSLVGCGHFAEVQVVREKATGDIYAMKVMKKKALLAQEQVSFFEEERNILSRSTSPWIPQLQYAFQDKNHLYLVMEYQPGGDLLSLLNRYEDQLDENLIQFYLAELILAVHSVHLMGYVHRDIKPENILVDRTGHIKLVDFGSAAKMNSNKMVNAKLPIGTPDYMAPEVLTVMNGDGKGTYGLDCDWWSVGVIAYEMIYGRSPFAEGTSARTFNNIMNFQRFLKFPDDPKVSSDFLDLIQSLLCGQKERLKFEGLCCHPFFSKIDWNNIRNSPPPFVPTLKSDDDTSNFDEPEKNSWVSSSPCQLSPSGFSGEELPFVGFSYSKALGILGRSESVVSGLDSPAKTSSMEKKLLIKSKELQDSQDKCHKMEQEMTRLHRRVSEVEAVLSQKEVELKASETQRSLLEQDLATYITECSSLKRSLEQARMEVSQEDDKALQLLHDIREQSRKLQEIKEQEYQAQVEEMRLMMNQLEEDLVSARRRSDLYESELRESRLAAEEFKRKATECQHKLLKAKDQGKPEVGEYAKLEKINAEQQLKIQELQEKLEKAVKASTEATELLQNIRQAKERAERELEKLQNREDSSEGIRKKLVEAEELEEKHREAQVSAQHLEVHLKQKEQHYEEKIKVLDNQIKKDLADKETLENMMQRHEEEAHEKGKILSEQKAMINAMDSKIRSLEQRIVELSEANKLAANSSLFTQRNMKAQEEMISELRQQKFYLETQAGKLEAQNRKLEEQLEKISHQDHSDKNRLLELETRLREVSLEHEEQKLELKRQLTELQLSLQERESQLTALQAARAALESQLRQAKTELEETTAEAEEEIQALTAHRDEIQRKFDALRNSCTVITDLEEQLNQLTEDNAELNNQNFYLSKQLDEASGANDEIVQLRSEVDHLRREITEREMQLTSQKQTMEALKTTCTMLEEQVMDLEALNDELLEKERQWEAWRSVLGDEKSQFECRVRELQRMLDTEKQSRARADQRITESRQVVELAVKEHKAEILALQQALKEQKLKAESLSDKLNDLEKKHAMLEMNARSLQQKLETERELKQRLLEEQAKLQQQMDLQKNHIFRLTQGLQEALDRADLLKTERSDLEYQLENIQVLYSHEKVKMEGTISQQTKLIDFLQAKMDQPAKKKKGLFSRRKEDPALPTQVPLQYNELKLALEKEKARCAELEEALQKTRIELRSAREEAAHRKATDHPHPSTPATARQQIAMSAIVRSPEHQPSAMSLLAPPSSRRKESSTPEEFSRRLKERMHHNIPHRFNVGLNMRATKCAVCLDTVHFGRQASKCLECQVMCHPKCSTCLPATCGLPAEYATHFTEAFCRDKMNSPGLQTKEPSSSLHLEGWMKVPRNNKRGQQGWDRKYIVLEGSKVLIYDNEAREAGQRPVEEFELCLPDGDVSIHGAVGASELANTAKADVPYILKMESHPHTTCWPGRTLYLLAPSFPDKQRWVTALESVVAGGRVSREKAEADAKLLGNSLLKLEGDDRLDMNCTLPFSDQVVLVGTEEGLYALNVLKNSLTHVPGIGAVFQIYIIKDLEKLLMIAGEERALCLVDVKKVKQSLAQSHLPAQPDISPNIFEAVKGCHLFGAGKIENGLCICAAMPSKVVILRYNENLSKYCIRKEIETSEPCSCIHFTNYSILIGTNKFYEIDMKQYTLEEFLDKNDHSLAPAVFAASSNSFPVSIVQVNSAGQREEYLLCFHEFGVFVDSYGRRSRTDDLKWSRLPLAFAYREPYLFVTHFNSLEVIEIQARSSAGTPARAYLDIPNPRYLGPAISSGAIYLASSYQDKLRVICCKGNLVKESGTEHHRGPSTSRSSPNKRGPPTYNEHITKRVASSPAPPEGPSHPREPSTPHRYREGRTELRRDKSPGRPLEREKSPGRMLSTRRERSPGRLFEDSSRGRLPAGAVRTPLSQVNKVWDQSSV
panel of more than 300 wild-type and mutant kinases (313 kinase panel) (Homo sapiens, UniProt Q9Y463), sequence (Q9Y463 whole entry, stated change not applied): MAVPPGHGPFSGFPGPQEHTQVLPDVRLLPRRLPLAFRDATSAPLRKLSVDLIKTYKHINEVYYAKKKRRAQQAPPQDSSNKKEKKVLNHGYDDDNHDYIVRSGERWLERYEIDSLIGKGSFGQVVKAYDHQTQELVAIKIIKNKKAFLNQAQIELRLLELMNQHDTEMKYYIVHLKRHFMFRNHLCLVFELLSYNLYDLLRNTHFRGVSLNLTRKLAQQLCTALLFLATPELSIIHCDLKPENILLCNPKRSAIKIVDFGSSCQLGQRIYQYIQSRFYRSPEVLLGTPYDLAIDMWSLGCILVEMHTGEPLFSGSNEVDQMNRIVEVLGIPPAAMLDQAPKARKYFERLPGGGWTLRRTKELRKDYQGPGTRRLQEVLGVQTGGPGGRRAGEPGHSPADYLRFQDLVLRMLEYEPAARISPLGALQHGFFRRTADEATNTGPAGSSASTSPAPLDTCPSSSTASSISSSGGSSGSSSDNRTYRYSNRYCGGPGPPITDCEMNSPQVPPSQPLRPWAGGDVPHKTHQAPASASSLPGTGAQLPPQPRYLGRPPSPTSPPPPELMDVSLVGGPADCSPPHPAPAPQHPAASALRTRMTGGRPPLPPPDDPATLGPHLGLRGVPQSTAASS

SMILES: C#Cc1cccc(Nc2ncnc3cc(OCCOC)c(OCCOC)cc23)c1 [erlotinib]
- %-inhibition of KIT(V560G) ([1]; 1 µM): 17%
- %-inhibition, CDK2/CycA2 ([2]; 1 µM): 10%
- %-inhibition, CDK2/CycE1 ([2]; 1 µM): -2.43%
- %-inhibition of IKKα ([3]; 1 µM): -5%
- %-inhibition of SRPK2 ([4]; 1 µM): 4.47%
- %-inhibition, CGK2 ([5]; 1 µM): -1.7%
- %-inhibition of SIK ([6]; 1 µM): 8%
- %-inhibition of MRCKα ([7]; 1 µM): -6%
- %-inhibition, CDC7/ASK ([8]; 1 µM): 0.905%
- %-inhibition of CRIK ([9]; 1 µM): 21%
- %-inhibition of DYRK1B [10]: -28%

SMILES: CO[C@H]1C[C@@H]2CC[C@@H](C)[C@@](O)(O2)C(=O)C(=O)N2CCCC[C@H]2C(=O)O[C@H]([C@H](C)C[C@@H]2CC[C@@H](OCCO)[C@H](OC)C2)CC(=O)[C@H](C)/C=C(\C)[C@@H](O)[C@@H](OC)C(=O)[C@H](C)C[C@H](C)/C=C/C=C/C=C/1C [everolimus]
- %-inhibition of KIT(V560G) [1, 11]: -6%
- %-inhibition, CDK2/CycA2 [2, 12]: -11%
- %-inhibition, CDK2/CycE1 [2, 13]: -14%
- %-inhibition of IKKα ([3]; kinase IKKα, compound at 1 μM): -3.22%
- %-inhibition of SRPK2 ([4]; kinase SRPK2, 1 μM): -10%
- %-inhibition, CGK2 ([5]; kinase CGK2, 1 μM compound): -4.58%
- %-inhibition of SIK ([6]; kinase SIK, 1 μM): -5.51%
- %-inhibition of MRCKα ([7]; kinase MRCKα, 1 μM): -6%
- %-inhibition, CDC7/ASK ([8]; kinase CDC7/ASK, 1 μM compound): -6%
- %-inhibition of CRIK ([9]; kinase CRIK, compound at 1 μM): -14%
- %-inhibition of DYRK1B [10, 14]: -8%

SMILES: O=S(=O)(c1cccc2cnccc12)N1CCCNCC1 [fasudil]
- %-inhibition of KIT(V560G) [1, 11]: 0.322%
- %-inhibition, CDK2/CycA2 [2, 12]: 22%
- %-inhibition, CDK2/CycE1 [2, 13]: 13%
- %-inhibition of IKKα ([3]; kinase IKKα, compound at 1 μM): 8%
- %-inhibition of SRPK2 ([4]; kinase SRPK2, 1 μM): -1.36%
- %-inhibition, CGK2 ([5]; kinase CGK2, 1 μM compound): 46%
- %-inhibition of SIK ([6]; kinase SIK, 1 μM): -0.948%
- %-inhibition of MRCKα ([7]; kinase MRCKα, 1 μM): -2.54%
- %-inhibition, CDC7/ASK ([8]; kinase CDC7/ASK, 1 μM compound): -7%
- %-inhibition of CRIK ([9]; kinase CRIK, compound at 1 μM): 7%
- %-inhibition of DYRK1B [10, 14]: 4.76%

SMILES: CS(=O)(=O)CCNCc1ccc(-c2ccc3ncnc(Nc4ccc(OCc5cccc(F)c5)c(Cl)c4)c3c2)o1 [lapatinib]
- %-inhibition of KIT(V560G) ([1]; 1 µM): 2.33%
- %-inhibition, CDK2/CycE1 ([2]; 1 µM): -2.57%
- %-inhibition of IKKα ([3]; kinase IKKα, compound at 1 μM): -9%
- %-inhibition of SRPK2 ([4]; kinase SRPK2, 1 μM): 4.47%
- %-inhibition, CGK2 ([5]; kinase CGK2, 1 μM compound): -9%
- %-inhibition of SIK ([6]; kinase SIK, 1 μM): -7%
- %-inhibition of MRCKα ([7]; 1 µM): -2.49%
- %-inhibition, CDC7/ASK ([8]; kinase CDC7/ASK, 1 μM compound): 3%
- %-inhibition of CRIK ([9]; kinase CRIK, compound at 1 μM): 7%
- %-inhibition of DYRK1B [10, 14]: 3%

SMILES: CNC(=O)c1cc(Oc2ccc(NC(=O)Nc3ccc(Cl)c(C(F)(F)F)c3)c(F)c2)ccn1 [regorafenib]
- %-inhibition of KIT(V560G) [1, 11]: 99%
- %-inhibition, CDK2/CycA2 [2, 12]: -12%
- %-inhibition, CDK2/CycE1 [2, 13]: -2.7%
- %-inhibition of IKKα ([3]; kinase IKKα, compound at 1 μM): -0.333%
- %-inhibition of SRPK2 ([4]; kinase SRPK2, 1 μM): 5%
- %-inhibition, CGK2 ([5]; kinase CGK2, 1 μM compound): -1.78%
- %-inhibition of SIK ([6]; kinase SIK, 1 μM): 0.674%
- %-inhibition of MRCKα ([7]; kinase MRCKα, 1 μM): -5%
- %-inhibition, CDC7/ASK ([8]; kinase CDC7/ASK, 1 μM compound): -5.36%
- %-inhibition of CRIK ([9]; kinase CRIK, compound at 1 μM): -18%
- %-inhibition of DYRK1B [10, 14]: -7.4%

SMILES: CO[C@H]1C[C@@H]2CC[C@@H](C)[C@@](O)(O2)C(=O)C(=O)N2CCCC[C@H]2C(=O)O[C@H]([C@H](C)C[C@@H]2CC[C@@H](OC(=O)C(C)(CO)CO)[C@H](OC)C2)CC(=O)[C@H](C)/C=C(\C)[C@@H](O)[C@@H](OC)C(=O)[C@H](C)C[C@H](C)/C=C/C=C/C=C/1C [temsirolimus]
- %-inhibition of KIT(V560G) [1, 11]: -5%
- %-inhibition, CDK2/CycA2 [2, 12]: -8%
- %-inhibition, CDK2/CycE1 [2, 13]: -1.35%
- %-inhibition of IKKα ([3]; kinase IKKα, compound at 1 μM): 1.39%
- %-inhibition of SRPK2 ([4]; kinase SRPK2, 1 μM): -3.79%
- %-inhibition, CGK2 ([5]; kinase CGK2, 1 μM compound): -2.84%
- %-inhibition of SIK ([6]; kinase SIK, 1 μM): -5.28%
- %-inhibition of MRCKα ([7]; kinase MRCKα, 1 μM): -1.53%
- %-inhibition, CDC7/ASK ([8]; kinase CDC7/ASK, 1 μM compound): -6%
- %-inhibition of CRIK ([9]; kinase CRIK, compound at 1 μM): -15%
- %-inhibition of DYRK1B [10, 14]: -11%

SMILES: CC(=O)Nc1cccc(-n2c(=O)n(C3CC3)c(=O)c3c(Nc4ccc(I)cc4F)n(C)c(=O)c(C)c32)c1 [trametinib]
- %-inhibition of KIT(V560G) [1, 11]: 1%
- %-inhibition, CDK2/CycA2 [2, 12]: 24%
- %-inhibition, CDK2/CycE1 [2, 13]: 2.59%
- %-inhibition of IKKα ([3]; kinase IKKα, compound at 1 μM): 2.63%
- %-inhibition of SRPK2 ([4]; kinase SRPK2, 1 μM): -0.868%
- %-inhibition, CGK2 ([5]; kinase CGK2, 1 μM compound): -2.61%
- %-inhibition of SIK ([6]; kinase SIK, 1 μM): -3%
- %-inhibition of MRCKα ([7]; kinase MRCKα, 1 μM): -0.565%
- %-inhibition, CDC7/ASK ([8]; kinase CDC7/ASK, 1 μM compound): -8%
- %-inhibition of CRIK ([9]; kinase CRIK, compound at 1 μM): -4.25%
- %-inhibition of DYRK1B [10, 14]: 3.34%

SMILES: CCCS(=O)(=O)Nc1ccc(F)c(C(=O)c2c[nH]c3ncc(-c4ccc(Cl)cc4)cc23)c1F [vemurafenib]
- %-inhibition of KIT(V560G) [1, 11]: 32%
- %-inhibition, CDK2/CycA2 [2, 12]: -3%
- %-inhibition, CDK2/CycE1 [2, 13]: -5%
- %-inhibition of IKKα ([3]; kinase IKKα, compound at 1 μM): -1.89%
- %-inhibition of SRPK2 ([4]; kinase SRPK2, 1 μM): -2.2%
- %-inhibition, CGK2 ([5]; kinase CGK2, 1 μM compound): -2.26%
- %-inhibition of SIK ([6]; kinase SIK, 1 μM): 24%
- %-inhibition of MRCKα ([7]; kinase MRCKα, 1 μM): 0.383%
- %-inhibition, CDC7/ASK ([8]; kinase CDC7/ASK, 1 μM compound): -7%
- %-inhibition of CRIK ([9]; kinase CRIK, compound at 1 μM): -6%
- %-inhibition of DYRK1B [10, 14]: -1.74%
